According to the kinase profiling compilation of Christmann-Franck et al. (2016):

Tests used:
Assay in all cases: KINOMEscan competition binding
Settings in all cases: compound 10.0 µM
[1] = target: MAP2K4 (human) (UniProt P45985)
[2] = target: JAK1 JH1 catalytic (human) (UniProt P23458)
[3] = target: STK32C (human) (UniProt Q86UX6)
[4] = target: RAF1 (human) (UniProt P04049)
[5] = target: GRK4 (human) (UniProt P32298)
[6] = target: CAMK1G (human) (UniProt Q96NX5)
[7] = target: MAPK7 (human) (UniProt Q13164)
[8] = target: DYRK1B (human) (UniProt Q9Y463)
[9] = target: MAPKAPK5 (human) (UniProt Q8IW41)
[10] = target: AXL (human) (UniProt P30530)
[11] = target: FLT4 (human) (UniProt P35916)
[12] = target: CDC42BPA (human) (UniProt Q5VT25)
[13] = system: PIK3CA (human), P42336 [E542K]
[14] = target: ROS1 (human) (UniProt P08922)
[15] = target: PDGFRA (human) (UniProt P16234)
[16] = target: PRKX (human) (UniProt P51817)
[17] = target: PRKCD (human) (UniProt Q05655)
[18] = target: RPS6KA1 KD2 (human) (UniProt Q15418)
[19] = target: JAK3 JH1 catalytic (human) (UniProt P52333)
[20] = target: CLK4 (human) (UniProt Q9HAZ1)
[21] = target: GSK3A (human) (UniProt P49840)
[22] = target: TEC (human) (UniProt P42680)
[23] = target: CDC42BPG (human) (UniProt Q6DT37)
[24] = target: IRAK3 (human) (UniProt Q9Y616)
[25] = target: MAST1 (human) (UniProt Q9Y2H9)
[26] = target: PTK2 (human) (UniProt Q05397)
[27] = target: STK17B (human) (UniProt O94768)
[28] = target: CSNK2A2 (human) (UniProt P19784)
[29] = target: RIPK1 (human) (UniProt Q13546)
[30] = target: PAK7 (human) (UniProt Q9P286)
[31] = target: MYO3A (human) (UniProt Q8NEV4)
[32] = target: PAK1 (human) (UniProt Q13153)
[33] = target: INSRR (human) (UniProt P14616)
[34] = target: CAMK2A (human) (UniProt Q9UQM7)
[35] = target: PDGFRB (human) (UniProt P09619)
[36] = target: PTK6 (human) (UniProt Q13882)
[37] = target: CSNK1A1L (human) (UniProt Q8N752)
[38] = target: MKNK1 (human) (UniProt Q9BUB5)
[39] = target: SLK (human) (UniProt Q9H2G2)
[40] = target: STK39 (human) (UniProt Q9UEW8)
[41] = target: EPHA1 (human) (UniProt P21709)
Chain of EPHA1 (human) (P21709 whole entry, looked up): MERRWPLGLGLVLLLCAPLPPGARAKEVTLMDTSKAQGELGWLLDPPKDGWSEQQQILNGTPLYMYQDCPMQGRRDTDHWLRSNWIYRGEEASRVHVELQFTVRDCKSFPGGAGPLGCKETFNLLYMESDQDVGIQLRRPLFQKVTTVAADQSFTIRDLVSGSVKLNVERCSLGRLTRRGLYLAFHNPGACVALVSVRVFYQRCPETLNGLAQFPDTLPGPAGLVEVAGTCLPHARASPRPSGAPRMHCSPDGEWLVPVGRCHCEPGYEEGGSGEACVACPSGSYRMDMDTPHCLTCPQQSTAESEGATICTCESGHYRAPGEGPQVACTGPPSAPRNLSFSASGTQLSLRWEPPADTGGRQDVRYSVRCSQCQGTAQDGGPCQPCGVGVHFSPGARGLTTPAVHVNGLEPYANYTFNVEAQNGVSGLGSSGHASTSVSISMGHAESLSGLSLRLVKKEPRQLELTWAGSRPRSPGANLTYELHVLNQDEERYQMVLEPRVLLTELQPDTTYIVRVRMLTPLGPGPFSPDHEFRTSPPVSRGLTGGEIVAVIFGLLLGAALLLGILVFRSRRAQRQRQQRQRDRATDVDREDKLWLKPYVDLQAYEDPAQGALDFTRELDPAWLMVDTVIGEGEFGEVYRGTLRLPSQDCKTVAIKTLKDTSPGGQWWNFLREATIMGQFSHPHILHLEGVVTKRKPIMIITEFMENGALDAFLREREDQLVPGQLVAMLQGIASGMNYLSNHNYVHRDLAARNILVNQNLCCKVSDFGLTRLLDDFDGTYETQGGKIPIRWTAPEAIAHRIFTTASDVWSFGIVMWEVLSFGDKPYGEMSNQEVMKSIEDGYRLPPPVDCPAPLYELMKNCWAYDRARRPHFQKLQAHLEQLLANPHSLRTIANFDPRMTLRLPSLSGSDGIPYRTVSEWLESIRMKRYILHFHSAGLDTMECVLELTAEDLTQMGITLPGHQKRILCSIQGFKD

Chain of CAMK2A (human) (Q9UQM7 whole entry, looked up): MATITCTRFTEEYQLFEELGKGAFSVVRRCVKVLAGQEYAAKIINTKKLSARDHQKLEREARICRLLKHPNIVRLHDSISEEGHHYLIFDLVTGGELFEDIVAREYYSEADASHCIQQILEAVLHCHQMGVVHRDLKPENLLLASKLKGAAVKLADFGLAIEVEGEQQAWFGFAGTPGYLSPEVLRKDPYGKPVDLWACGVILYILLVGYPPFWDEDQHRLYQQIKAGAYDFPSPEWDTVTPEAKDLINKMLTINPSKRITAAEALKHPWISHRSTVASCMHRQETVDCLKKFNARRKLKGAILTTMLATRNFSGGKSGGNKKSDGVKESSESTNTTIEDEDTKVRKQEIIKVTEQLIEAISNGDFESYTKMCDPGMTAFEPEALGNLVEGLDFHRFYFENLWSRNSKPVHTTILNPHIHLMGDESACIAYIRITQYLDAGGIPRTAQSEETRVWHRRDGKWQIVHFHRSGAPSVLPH
Chain of PRKCD (human) (Q05655 whole entry, looked up): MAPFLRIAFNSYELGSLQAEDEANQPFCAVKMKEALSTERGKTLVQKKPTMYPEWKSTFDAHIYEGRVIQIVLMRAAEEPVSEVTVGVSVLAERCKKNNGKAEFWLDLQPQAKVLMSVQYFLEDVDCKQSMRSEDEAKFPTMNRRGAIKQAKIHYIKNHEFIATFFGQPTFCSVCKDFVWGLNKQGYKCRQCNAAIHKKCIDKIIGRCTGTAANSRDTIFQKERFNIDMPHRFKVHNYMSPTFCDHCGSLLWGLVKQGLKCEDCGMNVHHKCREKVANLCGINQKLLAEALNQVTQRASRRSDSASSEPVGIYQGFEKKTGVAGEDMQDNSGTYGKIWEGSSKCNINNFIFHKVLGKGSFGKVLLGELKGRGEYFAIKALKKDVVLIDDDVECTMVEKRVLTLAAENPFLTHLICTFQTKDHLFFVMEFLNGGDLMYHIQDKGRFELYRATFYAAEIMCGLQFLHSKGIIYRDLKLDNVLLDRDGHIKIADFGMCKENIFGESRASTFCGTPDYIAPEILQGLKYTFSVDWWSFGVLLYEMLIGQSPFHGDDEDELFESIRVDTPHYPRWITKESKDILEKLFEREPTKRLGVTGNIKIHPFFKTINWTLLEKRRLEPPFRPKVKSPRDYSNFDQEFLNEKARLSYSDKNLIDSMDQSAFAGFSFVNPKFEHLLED
Chain of CSNK1A1L (human) (Q8N752 whole entry, looked up): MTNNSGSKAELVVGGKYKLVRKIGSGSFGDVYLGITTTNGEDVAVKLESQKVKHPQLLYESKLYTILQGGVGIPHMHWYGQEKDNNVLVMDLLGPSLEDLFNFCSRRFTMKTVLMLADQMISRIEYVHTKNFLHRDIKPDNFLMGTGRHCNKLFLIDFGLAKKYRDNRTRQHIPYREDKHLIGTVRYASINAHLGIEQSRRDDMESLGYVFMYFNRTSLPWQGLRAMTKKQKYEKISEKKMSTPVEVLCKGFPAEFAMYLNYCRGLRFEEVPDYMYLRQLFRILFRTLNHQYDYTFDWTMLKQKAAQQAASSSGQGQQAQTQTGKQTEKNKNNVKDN
Chain of MAST1 (human) (Q9Y2H9 whole entry, looked up): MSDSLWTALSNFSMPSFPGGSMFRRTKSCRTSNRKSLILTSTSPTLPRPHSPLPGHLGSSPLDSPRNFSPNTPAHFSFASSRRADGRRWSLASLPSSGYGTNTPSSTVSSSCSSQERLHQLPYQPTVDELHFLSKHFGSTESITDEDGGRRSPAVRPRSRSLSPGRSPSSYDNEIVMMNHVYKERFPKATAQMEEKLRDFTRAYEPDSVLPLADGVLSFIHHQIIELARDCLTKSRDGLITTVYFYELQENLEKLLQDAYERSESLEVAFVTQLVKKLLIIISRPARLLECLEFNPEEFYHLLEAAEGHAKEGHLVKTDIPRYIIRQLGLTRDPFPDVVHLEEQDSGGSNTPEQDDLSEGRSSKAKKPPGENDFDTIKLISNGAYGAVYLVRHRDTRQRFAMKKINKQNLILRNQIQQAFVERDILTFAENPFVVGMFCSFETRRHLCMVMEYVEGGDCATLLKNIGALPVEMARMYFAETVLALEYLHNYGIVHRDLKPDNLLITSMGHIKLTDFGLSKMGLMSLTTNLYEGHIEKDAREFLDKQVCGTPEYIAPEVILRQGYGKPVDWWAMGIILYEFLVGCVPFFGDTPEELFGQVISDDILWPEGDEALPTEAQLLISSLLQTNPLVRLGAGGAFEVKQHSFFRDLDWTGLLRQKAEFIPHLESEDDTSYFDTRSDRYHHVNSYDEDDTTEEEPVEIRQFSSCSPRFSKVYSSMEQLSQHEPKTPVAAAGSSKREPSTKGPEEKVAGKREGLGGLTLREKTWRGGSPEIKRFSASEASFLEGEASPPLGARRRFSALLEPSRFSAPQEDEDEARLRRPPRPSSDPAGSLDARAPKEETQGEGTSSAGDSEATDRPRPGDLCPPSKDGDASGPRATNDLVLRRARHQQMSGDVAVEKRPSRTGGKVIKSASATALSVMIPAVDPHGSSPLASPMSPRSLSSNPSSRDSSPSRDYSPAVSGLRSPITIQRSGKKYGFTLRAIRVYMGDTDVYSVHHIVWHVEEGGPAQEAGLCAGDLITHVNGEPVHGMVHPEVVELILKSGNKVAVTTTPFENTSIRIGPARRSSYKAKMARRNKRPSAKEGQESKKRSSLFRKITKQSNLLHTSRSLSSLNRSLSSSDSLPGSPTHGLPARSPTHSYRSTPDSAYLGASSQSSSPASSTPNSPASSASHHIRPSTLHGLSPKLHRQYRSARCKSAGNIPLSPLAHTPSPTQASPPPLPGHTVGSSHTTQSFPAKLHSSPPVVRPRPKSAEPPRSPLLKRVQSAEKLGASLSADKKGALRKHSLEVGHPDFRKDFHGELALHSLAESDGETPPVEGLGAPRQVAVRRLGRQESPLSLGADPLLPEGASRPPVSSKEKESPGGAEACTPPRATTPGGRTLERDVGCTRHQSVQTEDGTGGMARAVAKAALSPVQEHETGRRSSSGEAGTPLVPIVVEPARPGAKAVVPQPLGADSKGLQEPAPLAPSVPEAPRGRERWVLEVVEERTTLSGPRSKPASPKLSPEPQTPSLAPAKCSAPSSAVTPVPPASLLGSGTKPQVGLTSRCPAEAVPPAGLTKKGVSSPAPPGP
Chain of RPS6KA1 KD2 (human) (Q15418 whole entry, looked up): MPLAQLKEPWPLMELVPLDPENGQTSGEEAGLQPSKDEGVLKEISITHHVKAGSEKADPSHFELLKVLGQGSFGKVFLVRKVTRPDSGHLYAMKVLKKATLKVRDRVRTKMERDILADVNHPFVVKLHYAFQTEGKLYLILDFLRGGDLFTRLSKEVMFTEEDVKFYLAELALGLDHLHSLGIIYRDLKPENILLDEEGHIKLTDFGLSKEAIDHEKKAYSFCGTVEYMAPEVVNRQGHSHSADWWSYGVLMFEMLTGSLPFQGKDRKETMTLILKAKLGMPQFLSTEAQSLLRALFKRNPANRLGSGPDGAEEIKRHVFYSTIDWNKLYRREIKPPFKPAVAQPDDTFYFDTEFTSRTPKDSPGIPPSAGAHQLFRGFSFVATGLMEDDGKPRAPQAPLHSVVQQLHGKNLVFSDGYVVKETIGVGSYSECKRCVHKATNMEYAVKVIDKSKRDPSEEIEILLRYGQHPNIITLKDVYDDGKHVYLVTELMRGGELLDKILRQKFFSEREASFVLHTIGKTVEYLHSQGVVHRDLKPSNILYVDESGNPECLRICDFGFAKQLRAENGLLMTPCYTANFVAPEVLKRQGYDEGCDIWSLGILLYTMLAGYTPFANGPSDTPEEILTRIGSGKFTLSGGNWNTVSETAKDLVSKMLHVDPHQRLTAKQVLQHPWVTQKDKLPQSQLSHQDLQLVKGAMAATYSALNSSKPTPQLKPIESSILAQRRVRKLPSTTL

Cc1cnc(-c2cnc(NCCNc3ccc(C#N)cn3)nc2-c2ccc(Cl)cc2Cl)[nH]1
kinase still bound, per cent of control [1]: 70%
kinase still bound, per cent of control [2]: 94%
kinase still bound, per cent of control [3]: 97%
kinase still bound, per cent of control [4]: 100%
kinase still bound, per cent of control [5]: 100%
kinase still bound, per cent of control [6]: 100%
kinase still bound, per cent of control [7]: 100%
kinase still bound, per cent of control [8]: 100%
kinase still bound, per cent of control [9]: 96%
kinase still bound, per cent of control [10]: 100%
kinase still bound, per cent of control [11]: 100%
kinase still bound, per cent of control [12]: 100%
kinase still bound, per cent of control [13]: 100%
kinase still bound, per cent of control [14]: 100%
kinase still bound, per cent of control [15]: 100%
kinase still bound, per cent of control [16]: 100%
kinase still bound, per cent of control [17]: 100%
kinase still bound, per cent of control [18]: 91%
kinase still bound, per cent of control [19]: 100%
kinase still bound, per cent of control [20]: 62%
kinase still bound, per cent of control [21]: 0%
kinase still bound, per cent of control [22]: 100%
kinase still bound, per cent of control [23]: 100%
kinase still bound, per cent of control [24]: 100%
kinase still bound, per cent of control [25]: 79%
kinase still bound, per cent of control [26]: 96%
kinase still bound, per cent of control [27]: 84%
kinase still bound, per cent of control [28]: 100%
kinase still bound, per cent of control [29]: 100%
kinase still bound, per cent of control [30]: 100%
kinase still bound, per cent of control [31]: 100%
kinase still bound, per cent of control [32]: 100%
kinase still bound, per cent of control [33]: 100%
kinase still bound, per cent of control [34]: 89%
kinase still bound, per cent of control [35]: 74%
kinase still bound, per cent of control [36]: 100%
kinase still bound, per cent of control [37]: 100%
kinase still bound, per cent of control [38]: 100%
kinase still bound, per cent of control [39]: 63%
kinase still bound, per cent of control [40]: 67%
kinase still bound, per cent of control [41]: 100%

O=C1Nc2cc(Br)ccc2/C1=C1/Nc2ccccc2/C1=N\O
kinase still bound, per cent of control [1]: 67%
kinase still bound, per cent of control [2]: 42%
kinase still bound, per cent of control [3]: 100%
kinase still bound, per cent of control [4]: 90%
kinase still bound, per cent of control [5]: 1.8%
kinase still bound, per cent of control [6]: 42%
kinase still bound, per cent of control [7]: 100%
kinase still bound, per cent of control [8]: 13%
kinase still bound, per cent of control [9]: 100%
kinase still bound, per cent of control [10]: 0.25%
kinase still bound, per cent of control [11]: 2.5%
kinase still bound, per cent of control [12]: 70%
kinase still bound, per cent of control [13]: 100%
kinase still bound, per cent of control [14]: 100%
kinase still bound, per cent of control [15]: 0%
kinase still bound, per cent of control [16]: 100%
kinase still bound, per cent of control [17]: 100%
kinase still bound, per cent of control [18]: 47%
kinase still bound, per cent of control [19]: 6.3%
kinase still bound, per cent of control [20]: 99%
kinase still bound, per cent of control [21]: 0%
kinase still bound, per cent of control [22]: 100%
kinase still bound, per cent of control [23]: 80%
kinase still bound, per cent of control [24]: 26%
kinase still bound, per cent of control [25]: 2.8%
kinase still bound, per cent of control [26]: 49%
kinase still bound, per cent of control [27]: 0%
kinase still bound, per cent of control [28]: 8%
kinase still bound, per cent of control [29]: 2.4%
kinase still bound, per cent of control [30]: 17%
kinase still bound, per cent of control [31]: 60%
kinase still bound, per cent of control [32]: 68%
kinase still bound, per cent of control [33]: 47%
kinase still bound, per cent of control [34]: 0.8%
kinase still bound, per cent of control [35]: 0%
kinase still bound, per cent of control [36]: 84%
kinase still bound, per cent of control [37]: 36%
kinase still bound, per cent of control [38]: 51%
kinase still bound, per cent of control [39]: 44%
kinase still bound, per cent of control [40]: 37%
kinase still bound, per cent of control [41]: 85%
